Source: ChEMBL document CHEMBL5523673, “Progress in the controllability technology of PROTAC” (Eur J Med Chem, 2024)

Legend:
[1] = molecular target: Epidermal growth factor receptor (Homo sapiens, UniProt P00533); assay: Inhibition of EGFR (unknown origin)
[2] = test system: OVCAR-8; assay: Antiproliferative activity against human OVCAR-8 cells assessed as reduction in cell viability incubated for 72 hrs by CCK-8 assay; format: functional, cell-based; conditions: OVCAR-8, 72 h
[3] = test system: T47D; assay: Antiproliferative activity against human T47D cells assessed as reduction in cell viability incubated for 72 hrs by CCK-8 assay; format: functional, cell-based
[4] = Antiproliferative activity against human HFF-1 cells assessed as reduction in cell viability incubated for 72 hrs by CCK-8 assay; format: toxicity, cell-based
[5] = Antiproliferative activity against human HK-2 cells assessed as reduction in cell viability incubated for 72 hrs by CCK-8 assay; format: toxicity, cell-based
[6] = Antiproliferative activity against mouse 3T3 cells assessed as reduction in cell viability incubated for 72 hrs by CCK-8 assay; format: toxicity, cell-based; conditions: NIH3T3 cells
[7] = molecular target: Protein cereblon/Bromodomain-containing protein 4 (Homo sapiens) (UniProt O60885+Q96SW2); assay: PROTAC activity at CRBN/BRD4 in human NAMALVA cells assessed as maximal degradation at 1 uM incubated for 30 mins by Western blot analysis relative to control; format: cell-based
Sequence of Protein cereblon/Bromodomain-containing protein 4 (Homo sapiens) (Q96SW2 whole entry, looked up, other chains not shown): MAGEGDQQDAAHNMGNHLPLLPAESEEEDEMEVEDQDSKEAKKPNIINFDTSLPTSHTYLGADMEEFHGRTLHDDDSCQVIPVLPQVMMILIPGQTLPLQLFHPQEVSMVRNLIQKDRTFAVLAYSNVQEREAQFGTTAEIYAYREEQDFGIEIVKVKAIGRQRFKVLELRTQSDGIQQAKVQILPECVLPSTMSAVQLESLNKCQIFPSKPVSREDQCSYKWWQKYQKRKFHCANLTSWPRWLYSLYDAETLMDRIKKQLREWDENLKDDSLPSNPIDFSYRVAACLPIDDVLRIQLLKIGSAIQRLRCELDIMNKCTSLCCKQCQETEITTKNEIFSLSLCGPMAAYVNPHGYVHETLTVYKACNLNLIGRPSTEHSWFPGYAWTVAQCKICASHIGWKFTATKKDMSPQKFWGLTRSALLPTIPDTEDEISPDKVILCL

[8] = test system: MCF7; assay: Antiproliferative activity against human MCF7 cells assessed as reduction in cell viability incubated for 72 hrs by CellTiter-Glo luminescent assay; format: functional, cell-based; conditions: MCF7, 72 h
[9] = test system: MCF7; assay: Cytotoxicity against human MCF7 cells assessed as reduction in cell growth incubated for 72 hrs by CellTiter-Glo luminescent assay; format: functional, cell-based; conditions: MCF7, 72 h
[10] = molecular target: T1, von Hippel-Lindau disease tumor suppressor/Bromodomain-containing protein 4 (Homo sapiens, UniProt O60885+P40337); assay: PROTAC activity at VHL/BRD4 in human MCF7 cells assessed as induction of BRD4 degradation incubated for 18 hrs by Western blotting analysis; format: cell-based
T1 sequence (P40337 whole entry, looked up, other chains not shown): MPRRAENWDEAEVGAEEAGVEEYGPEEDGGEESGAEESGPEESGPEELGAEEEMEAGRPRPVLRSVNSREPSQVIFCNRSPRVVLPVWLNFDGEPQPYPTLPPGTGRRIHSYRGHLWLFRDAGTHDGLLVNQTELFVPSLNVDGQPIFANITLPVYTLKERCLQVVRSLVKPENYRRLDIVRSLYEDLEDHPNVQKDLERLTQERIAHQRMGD

[11] = molecular target: T1, von Hippel-Lindau disease tumor suppressor/Bromodomain-containing protein 4; assay: PROTAC activity at human VHL/BRD4 in human MCF7 cells assessed as maximum degradation of BRD4 measured after 18 hrs by Western blot analysis relative to control; format: cell-based
[12] = molecular target: T1, von Hippel-Lindau disease tumor suppressor/Bromodomain-containing protein 4; assay: PROTAC activity at human VHL/BRD4 in human HeLa cells assessed as maximal degradation of BRD4 incubated for 24 hrs by Western blot analysis relative to control; format: cell-based

Sequence of Epidermal growth factor receptor (P00533 whole entry): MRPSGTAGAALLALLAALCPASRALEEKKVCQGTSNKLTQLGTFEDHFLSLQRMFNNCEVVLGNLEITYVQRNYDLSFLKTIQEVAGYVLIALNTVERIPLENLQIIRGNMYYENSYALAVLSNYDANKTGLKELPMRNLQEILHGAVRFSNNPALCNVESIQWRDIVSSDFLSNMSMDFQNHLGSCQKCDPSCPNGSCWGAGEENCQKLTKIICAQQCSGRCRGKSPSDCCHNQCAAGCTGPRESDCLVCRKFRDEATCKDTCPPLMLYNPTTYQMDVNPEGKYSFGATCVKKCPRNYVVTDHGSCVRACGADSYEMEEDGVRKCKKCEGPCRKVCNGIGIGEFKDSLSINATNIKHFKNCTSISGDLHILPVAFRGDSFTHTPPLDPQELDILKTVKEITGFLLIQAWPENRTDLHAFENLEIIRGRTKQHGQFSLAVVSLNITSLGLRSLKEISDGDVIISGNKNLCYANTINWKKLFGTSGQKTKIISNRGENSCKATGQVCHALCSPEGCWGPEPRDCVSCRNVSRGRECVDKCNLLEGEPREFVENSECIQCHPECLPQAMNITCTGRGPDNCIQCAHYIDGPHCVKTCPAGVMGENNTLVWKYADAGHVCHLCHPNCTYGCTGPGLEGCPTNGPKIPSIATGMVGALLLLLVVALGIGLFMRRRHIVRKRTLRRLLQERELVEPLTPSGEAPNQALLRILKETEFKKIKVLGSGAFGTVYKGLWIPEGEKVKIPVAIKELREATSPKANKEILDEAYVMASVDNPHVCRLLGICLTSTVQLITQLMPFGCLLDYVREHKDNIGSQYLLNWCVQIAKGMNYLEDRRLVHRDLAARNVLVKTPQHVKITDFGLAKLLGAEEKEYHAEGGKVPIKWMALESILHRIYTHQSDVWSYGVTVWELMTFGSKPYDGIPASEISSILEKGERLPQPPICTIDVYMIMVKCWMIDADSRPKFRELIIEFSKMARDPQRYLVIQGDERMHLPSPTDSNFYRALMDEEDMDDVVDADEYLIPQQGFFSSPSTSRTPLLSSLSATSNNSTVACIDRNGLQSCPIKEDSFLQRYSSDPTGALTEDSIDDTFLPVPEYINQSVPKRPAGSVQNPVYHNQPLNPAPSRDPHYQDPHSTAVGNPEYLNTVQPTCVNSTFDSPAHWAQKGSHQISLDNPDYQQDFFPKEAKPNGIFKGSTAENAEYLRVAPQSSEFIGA

COc1cc2ncnc(N(Cc3ccc([N+](=O)[O-])cc3)c3ccc(F)c(Cl)c3)c2cc1OCCOCCOCCOCCC(=O)Nc1cccc2c1CN(C1CCC(=O)NC1=O)C2=O (stereo not drawn)
IC50 [1]: 3560 nM

Cc1ncsc1-c1ccc([C@H](C)NC(=O)[C@@H]2C[C@@H](OC(=O)CCCCn3cc(CNC(=O)CC[C@H](NC(=O)c4ccc(NCc5cnc6nc(N)[nH]c(=O)c6n5)cc4)C(=O)O)nn3)CN2C(=O)[C@@H](NC(=O)COCCCOCCNC(=O)C[C@@H]2N=C(c3ccc(Cl)cc3)c3c(sc(C)c3C)-n3c(C)nnc32)C(C)(C)C)cc1
IC50 [2]: 297 nM | IC50 [3]: 18 nM | IC50 at 72 h [4]: > 10000 nM | IC50 at 72 h [5]: 2100 nM | IC50 at 72 h [6]: 1400 nM

COc1cc(CN(CCCCNC(=O)COc2cccc3c2C(=O)N(C2CCC(=O)NC2=O)C3=O)C(=O)CC2N=C(c3ccc(Cl)cc3)c3c(sc(C)c3C)-n3c(C)nnc32)c([N+](=O)[O-])cc1OC (stereo not drawn)
Emax [7]: 93%

Cc1sc2c(c1C)C(c1ccc(Cl)cc1)=N[C@@H](CC(=O)NCCCCCN(Cc1ccc(B(O)O)cc1)c1cccc3c1CN(C1CCC(=O)NC1=O)C3=O)c1nnc(C)n1-2 (stereo partly drawn)
IC50 [8]: 122 nM | IC50 [9]: 1020 nM | DC50 [10]: 31.2 nM | Emax [11]: 77.5%

Cc1ncsc1-c1ccc([C@H](C)NC(=O)[C@@H]2C[C@@H](OC(=O)Cc3ccc(B4OC(C)(C)C(C)(C)O4)cc3)CN2C(=O)[C@@H](NC(=O)COCCCOCCNC(=O)C[C@@H]2N=C(c3ccc(Cl)cc3)c3c(sc(C)c3C)-n3c(C)nnc32)C(C)(C)C)cc1
Emax [12]: 70%

Cc1ncsc1-c1ccc([C@H](C)NC(=O)[C@@H]2C[C@@H](O)CN2C(=O)[C@@H](NC(=O)COCCCOCCNC(=O)C[C@@H]2N=C(c3ccc(Cl)cc3)c3c(sc(C)c3C)-n3c(C)nnc32)C(C)(C)C)cc1
IC50 [2]: 215 nM | IC50 [3]: 13 nM | IC50 at 72 h [4]: 1100 nM | IC50 at 72 h [5]: 160 nM | IC50 at 72 h [6]: 210 nM | IC50 [8]: 120 nM
